# Laboratory results reported in patent US12173018B2, “Penicillin-binding protein inhibitors” (priority 2018, dated 2024).
# Where two headings read alike, the source gives them in different places.
# Experiments:
# [1] = molecular target: E. coli PBP4 (Escherichia coli (strain K12), UniProt P24228); test: E. coli PBP4 Bocillin-FL fluorescence polarization competition binding assay
# Source text: To determine the ability of boronic acid-based test PBP inhibitors to bind Penicillin Binding Proteins (PBPs), Bocillin-FL (fluorescently-labeled penicillin V; ThermoFisher Scientific) was used in a fluorescence polarization (FP) competition binding assay to assess inhibitor binding to PBP2, PBP3 or PBP4 from Escherichia coli. PBPs were cloned and purified as described previously (King, D. T, et al., ACS Infectious Diseases 2015, 1, 175-184). To establish assay conditions for competition binding, an enzyme titration/saturation binding experiment was initially performed. Bocillin-FL was prepared at 0.2 μM in a buffer comprised of 50 mM Hepes (pH 8.0), 300 mM NaCl and 5% (v/v) glycerol. Saturation binding was performed by mixing 40 μl of PBP solutions ranging in concentrations from 0-12 μM with 40 μl of the 0.2 μM Bocillin-FL solution, in individual wells of a black 384-well microplate. FP was measured immediately upon mixing (Excitation, 490 nm; Emission, 520 nm; g-factor, 0.96), using a Cytation3 (BioTek) microplate reader and measured continuously for up to 120 minutes. […] Assays (80 μl final volume) were performed with PBPs at a final concentration of 1.5 μM, Bocillin-FL at 0.1 μM and beta-lactam concentrations that ranged from 0-1000 μM. […] Bocillin-FL was added and the FP immediately measured for 60 minutes (90 minutes for PBP2). The beta-lactam potency was reported as the concentration of beta-lactam required to reduce binding of Bocillin-FL by […] (EC50). […] Binding assays for boronic acid PBP inhibitors were performed in an identical fashion.
# [2] = molecular target: E. coli PBP3 (Escherichia coli (strain K12), UniProt P0AD68); test: E. coli PBP3 Bocillin-FL fluorescence polarization competition binding assay
# In short: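 Purified PBP (1.5 μM final) was combined with test compound (0–1000 μM) and Bocillin-FL (fluorescent penicillin V, 0.1 μM final) in 50 mM Hepes pH 8.0, 300 mM NaCl, 5% glycerol.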
# [3] = system: E. coli ATCC 25922; test: Broth microdilution MIC, E. coli ATCC 25922; format: cell-based; conditions: Escherichia coli, ATCC25922; E. coli ATCC 25922, broth microdilution; read-out: MIC E. coli 25922
# In short: (§1)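 MIC = lowest concentration showing no visible growth after 16-20 h at 37° C. Cation-adjusted MH broth, 2-fold serial dilutions, starting inoculum 5×10^5 CFU/mL, per CLSI methods.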
# [4] = system: engineered strain of Escherichia coli harboring CTX-M15; test: microbe, parasite or virus in culture; format: cell-based; conditions: Escherichia coli, read-out: Microbiological Activity (MIC in mg/L), E. coli DH5α/pLBII-CTX-M15, engineered strain producing CTX-M15
# [5] = system: E. coli AG100A; test: microbe, parasite or virus in culture; format: cell-based; conditions: Escherichia coli, read-out: MIC E. coli AG100A
# In short: as §1
# [6] = system: K. pneumoniae UMM; test: microbe, parasite or virus in culture; format: cell-based; conditions: Klebsiella pneumoniae; K. pneumoniae UMM producing SHV-5 and KPC-2; read-out: MIC K. pneumoniae UMM
# In short: as §1
# [7] = system: E. coli 901C; test: microbe, parasite or virus in culture; format: cell-based; conditions: Escherichia coli; hyper-permeable E. coli 901C, broth microdilution; read-out: MIC E. coli 901C
# In short: as §1
# [8] = molecular target: E. coli PBP2 (Escherichia coli (strain K12), UniProt P0AD65); test: E. coli PBP2 Bocillin-FL fluorescence polarization competition binding assay
# In short: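 Purified PBP2 at 1.5 μM final was preincubated with boronic acid inhibitor, then Bocillin-FL added to 0.1 μM final in Hepes pH 8.0/NaCl/glycerol buffer. Polarization was monitored 90 min; the concentration halving probe binding is reported as EC50.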
# [9] = system: E. coli AG100; test: Broth microdilution MIC, E. coli AG100 (wild-type parent); format: cell-based; conditions: Escherichia coli; wild-type parent E. coli AG100, broth microdilution; read-out: MIC E. coli AG100
# In short: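 Starting inoculum of 5×10^5 CFU/mL, from colonies grown 3-5 h in Mueller-Hinton broth with divalent cations, added to two-fold compound dilution series.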
# [10] = molecular target: E. coli PBP1a (Escherichia coli (strain K12), UniProt P02918); test: Radioligand competition binding assay with 14C-labeled boronic acid probe, PBP1a
# Source text: To determine the ability of boronic acid-based test PBP inhibitors to bind Penicillin Binding Proteins (PBPs), a radio-labelled boronic acid PBP inhibitor
# [drawing 751] was used in competition binding assays to determine boronic acid PBP inhibitor binding to PBP1a or PBP1b from Escherichia coli. PBP1a and PBP1b were purified as described previously (Bertsche, U.; et al., J. Biol. Chem. 2005, 280 (45), 38096-38101; Born, P.; et al., J. Biol. Chem. 2006. 281 (37), 26985-26993). To establish assay conditions for competition binding, an enzyme titration/saturation binding experiment was performed. Saturation binding was performed in a buffer comprised of 20 mM Tris (pH 7.5), 500 mM NaCl and 0.1% (v/v) TritonX-100, with PBP1a/PBP1b at a final concentration of 0.1 μM and Compound A at final concentrations ranging from 0-100 μM. Mixtures were incubated for 60 minutes, then applied to Zeba Spin Desalting columns or plates (ThermoFisher Scientific) and centrifuged at 1000-1500×g for 2 minutes. The flow through, containing PBP bound with Compound A, was recovered and 100 μL mixed with 5 mL of UltimaGold liquid scintillation cocktail (Perkin Elmer), and the radioactivity counted using a Beckman Coulter LS 6500 Multipurpose scintillation counter. PBP binding of Compound A approached saturation at 20 μM of ^14C-labeled probe. The competition binding assay was validated using the beta-lactam ampicillin, with Compound A at a final concentration of 20 μM, PBP1a/PBP1b at a final concentration of 0.1 μM. PBP1a/PBP1b was incubated with ampicillin in a 96-well microplate for 60 minutes, then Compound A was added and the mixtures incubated for an additional 60 minutes. The mixtures were then applied to Zeba Spin desalting plates and centrifuged at 1000×g for 2 minutes. The flow through was recovered and 100 μl mixed with 5 ml of UltimaGold liquid scintillation cocktail and the radioactivity counted. […] Binding assays with boronic acid PBP inhibitors were performed in an identical fashion. The potency of boronic acid PBP inhibitors was reported as the EC50 value.
# [11] = system: E. coli DH5α empty pLBII vector control strain; test: microbe, parasite or virus in culture; format: cell-based, Escherichia coli; conditions: Escherichia coli, read-out: Microbiological Activity (MIC in mg/L), E. coli DH5α/pLBII
# In short: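 MIC was the lowest concentration visibly free of growth after 16–20 h at 37 °C, against 5×10^5 CFU/mL of the empty-pLBII DH5α control strain. Twofold compound dilutions were made in cation-adjusted Mueller-Hinton broth.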
smiles,measurement,setting,value
"C[C@@H](O)[C@H]1C(=O)N2C(C(=O)O)=C(S[C@@H]3CN[C@H](C(=O)N(C)C)C3)[C@H](C)[C@H]12 [meropenem, reference compound]",EC50,"[1]; assay validation with beta-lactams, PBP 1.5 μM, Bocillin-FL 0.1 μM, read-out: EC50 with PBP4 (reduction of Bocillin-FL binding)",< 2 µM
"CCN1CCN(C(=O)N[C@H](Cc2ccc(O)c(O)c2)C(=O)N[C@H]2Cc3cccc(C(=O)O)c3OB2O)C(=O)C1=O [Example 40, (R)-3-((R)-3-(3,4-dihydroxyphenyl)-2-(4-ethyl-2,3-dioxopiperazine-1-carboxamido)propanamido)-2-hydroxy-3,4-dihydro-2H-benzo[e][1,2]oxaborinine-8-carboxylic acid]",EC50,[2],30 to 500 µM
same,EC50,[1],30 to 500 µM
"CCN1CCN(C(=O)NC(C(=O)N[C@H]2Cc3cccc(C(=O)O)c3OB2O)c2ccc(O)cn2)C(=O)C1=O (stereo partly drawn) [Example 89, (3R)-3-(2-(4-ethyl-2,3-dioxopiperazine-1-carboxamido)-2-(5-hydroxypyridin-2-yl)acetamido)-2-hydroxy-3,4-dihydro-2H-benzo[e][1,2]oxaborinine-8-carboxylic acid]",MIC,[3],8 to 16 µg/mL
same,EC50,"[2]; fluorescence polarization competition binding with Bocillin-FL, read-out: E. coli K12 PBP3 Potency",< 30 µM
same,MIC,[4],8 to 16 mg/L
same,MIC,[5],2 to 4 µg/mL
same,MIC,[6],8 to 16 µg/mL
same,MIC,[7],0.5 to 1 µg/mL
same,EC50,[8],30 to 500 µM
same,MIC,[9],32 to 64 µg/mL
same,EC50,[1],30 to 500 µM
"CCN1CCN(C(=O)NC(C(=O)N[C@H]2Cc3cc(C)cc(C(=O)O)c3OB2O)c2csc(N)n2)C(=O)C1=O (stereo partly drawn) [Example 20, (3R)-3-(2-(2-aminothiazol-4-yl)-2-(4-ethyl-2,3-dioxopiperazine-1-carboxamido)acetamido)-2-hydroxy-6-methyl-3,4-dihydro-2H-benzo[e][1,2]oxaborinine-8-carboxylic acid]",EC50,[2],30 to 500 µM
same,MIC,[4],32 to 64 mg/L
same,EC50,[10],< 10 µM
same,EC50,"[8]; fluorescence polarization competition binding with Bocillin-FL, read-out: E. coli K12 PBP2 Potency (EC50)",> 500 µM
same,EC50,"[1]; fluorescence polarization competition binding with Bocillin-FL, read-out: E. coli K12 PBP4 Potency (EC50)",> 500 µM
same,MIC,[11],32 to 64 mg/L
